Data reported in patent US7273710B2, “Method for screening MCH receptor antagonist/agonist” (Takeda Pharmaceutical Company Limited, priority 2000, dated 2007).
Positions of bridges follow the written chain, without caps; N, C: chain ends. No end group written: not given here.

Tests used:
human SLT [1] = target: T1, human SLT (Homo sapiens, UniProt Q969V1); experiment: Inhibition of forskolin-stimulated cAMP production in human SLT-expressing CHO cells; assay type: cell-based; settings: CHO/hSLT cells, 2 μM forskolin, FIG. 2
T1 construct: expressed in transfected cells; host or cells: membrane fraction of CHO/hSLT cells (CHO dhfr- transfected with pAKKO-hSLT)
T1 sequence (Q969V1 whole entry): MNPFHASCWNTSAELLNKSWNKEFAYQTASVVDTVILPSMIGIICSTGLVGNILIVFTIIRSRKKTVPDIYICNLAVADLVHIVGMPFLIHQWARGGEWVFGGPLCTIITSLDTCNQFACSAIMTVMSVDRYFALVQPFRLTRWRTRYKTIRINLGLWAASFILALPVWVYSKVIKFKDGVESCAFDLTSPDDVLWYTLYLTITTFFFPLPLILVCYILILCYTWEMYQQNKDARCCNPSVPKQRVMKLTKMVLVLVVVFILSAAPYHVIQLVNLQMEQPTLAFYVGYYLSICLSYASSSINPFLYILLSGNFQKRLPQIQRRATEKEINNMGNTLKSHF

human SLT [2] = target: T1, human SLT; experiment: FLIPR assay of intracellular Ca ion level in human SLT-expressing CHO cells; assay type: cell-based; settings: CHO/hSLT cells, Fluo 3-AM, FIG. 5
human SLT [3] = target: T1, human SLT; experiment: Release of [3H] arachidonic acid metabolite in human SLT-expressing CHO cells; assay type: cell-based; settings: CHO/hSLT cells, FIG. 6
human SLT [4] = target: T1, human SLT; experiment: Receptor binding assay with [125I]-labeled MCH (4-19) on cell membrane fraction of human SLT-expressing CHO cells; settings: membrane fractions from CHO/hSLT clones #1, 26, 36, 25° C., 60 minutes, FIG. 3

Compound	concentration at which the intracellular cAMP was clearly decreased (human SLT [1]; 37° C., 30 minutes) [pM]	inhibition of cAMP production, concentration dependence (human SLT [1])	increase of the intracellular Ca ion level (human SLT [2])	activity to induce the release of the arachidonic acid metabolite (human SLT [3])	specific binding to cell membrane fraction (human SLT [4])
CSCC[C@@H]1NC(=O)[C@@H](NC(=O)[C@H](CCCNC(=N)N)NC(=O)[C@H](CC(C)C)NC(=O)[C@H](CCSC)NC(=O)[C@H](CC(=O)O)NC(=O)[C@H](Cc2ccccc2)NC(=O)[C@@H](N)CC(=O)O)CSSC[C@@H](C(=O)N[C@@H](Cc2c[nH]c3ccccc23)C(=O)N[C@@H](CCC(N)=O)C(=O)N[C@H](C(=O)O)C(C)C)NC(=O)[C@@H]2CCCN2C(=O)[C@H](CCCNC(=N)N)NC(=O)[C@H](Cc2ccc(O)cc2)NC(=O)[C@H](C(C)C)NC(=O)[C@H](CCCNC(=N)N)NC(=O)CNC(=O)[C@H](CC(C)C)NC1=O [MCH, Asp-Phe-Asp-Met-Leu-Arg-Cys-Met-Leu-Gly-Arg-Val-Tyr-Arg-Pro-Cys-Trp-Gln-V al]	30	decreased in a dose-dependent manner	increases the intracellular Ca ion level in human SLT-expressing CHO cells in a manner dependent on the concentration	in a does-dependent manner	–
[^125I]-[N-3-(4-hydroxy-3-iodophenyl)propionyl)-Met^4]-MCH (4-19) ({3‑(4-hydroxy-3-(125I)iodophenyl)propionyl}-MLRCMLGRVYRPCWQV; disulfide 4-13) [[^125I]-labeled MCH (4-19)]	–	–	–	–	dependent on the concentration of membrane fraction was observed
